Measurements taken from patent US9688624B2, “DP2 antagonist and uses thereof” (Brickell Biotech, Inc., priority 2010, dated 2017).
Counter-ions that a name gives are not always drawn. Like-named read-outs stand apart in the source and are kept apart here.

Columns and labels:
[1] = test system: DK-PGD2-induced peripheral blood leukocyte influx; experiment: Guinea pig IV DK-PGD2-induced peripheral blood leukocyte influx; assay type: in vivo; conditions: for EC50 / ED50: Cavia porcellus, Leukocyte, calculated; for EC50: iv, plasma concentration; for ED50: oral
Experimental: Example 19: Guinea Pig IV-DKPGD2-Induced Peripheral Blood Leukocyte to Influx
The ability of Compound 2 to inhibit leukocyte migration in vivo was assessed using intravenous injection of 13,14-dihydro-15-keto-prostaglandin D2 (DK-PGD2). Methods were adapted from those detailed Shichijo et al., 2003, Journal of Pharmacology and Experimental Therapeutics, 307:518-525. Male Hartley guinea pigs were immunized with ovalbumin (OVA) on day 0 by intraperitoneal (IP) injection of 1 ml of a 100 μg/ml solution in Imject Alum. They were then used in the DK-PGD2 procedure between days 14 and 21. Subjects were randomly assigned to receive either vehicle (0.5% methyl cellulose, 4 ml/kg, oral (PO)) or one of three to four doses of test compound. Two hours or eighteen hours after dosing, animals were anesthetized with ketamine and challenged with DK-PGD2 (1 mg/kg, IV). Thirty minutes after IV administration, blood was collected via the marginal ear vein into EDTA tubes for cell analysis. 10 μl blood was lysed in 190 μl water followed by a further 20-fold dilution in PBS. A 10 μl fraction was mixed with equal parts trypan blue and loaded on a hemocytometer. Cells were visualized at a magnification of 40× using a LabPro light microscope and totals counted and recorded. Cells are expressed as total cells×10^8 per ml of blood Inhibition of this effect is determined statistically using Graphpad prism.

[2] = Thermodynamic aqueous solubility; assay type: physicochemical
Experimental: Example 6: Thermodynamic Aqueous Solubility
Aqueous solubility was determined by suspending sufficient compound in water to give a maximum final concentration of ≧20 mg·ml-1 of the parent free-form of the compound. The suspension was equilibrated at 25° C. for 24 hours then the pH was measured. The suspension was then filtered through a glass fibre C filter into a 96 well plate unless stated otherwise. The filtrate was then diluted by a factor of 101. Quantitation was by HPLC with reference to a standard solution of approximately 0.25 mg·ml^−1 in DMSO. Different volumes of the standard, diluted and undiluted sample solutions were injected. The solubility was calculated using the peak areas determined by integration of the peak found at the same retention time as the principal peak in the standard injection.
Analysis was performed on an Agilent HP1100 series system equipped with a diode array detector and using ChemStation software vB.02.01-SR1.

[3] = target: recombinant human CRTH2 receptor (Homo sapiens (Human), UniProt Q9Y5Y4); experiment: In vitro membrane GTPγS binding assay; assay type: biochemical; conditions: average; 80 nM PGD2, 0.2% human serum albumin
Experimental: Example 16: In Vitro GTPγS Binding Assay
The ability of Compound 1 to inhibit binding of GTP to DP2 is assessed via a membrane GTPγS assay. CHO cells stably expressing the recombinant human CRTH2 receptor are resuspended in 10 mM Hepes, 7.4 containing 1 mM DTT, lysed and centrifuged at 75,000×g to pellet the membranes. The membranes are resuspended in 10 mM Hepes, 7.4 containing 1 mM DTT and 10% glycerol. Membranes (˜12.5 μg per well) are incubated in 96-well plates with 0.05 nM [^35S]-GTPγS, 80 nM PGD2, 5 μM GDP, and Compound 1 in Assay Buffer (50 mM Hepes, pH 7.4, 100 mM NaCl, 5 mM MgCl2 and 0.2% human serum albumin) for 60 minutes at 30° C. The reactions are terminated by rapid filtration through Whatman GF/B glass fibre filter plates. The filter plates are washed 3 times with 1 ml cold Assay Buffer and dried. Scintillant is then added to the plates and the radioactivity retained on the filters is determined on a Packard TopCount (Perkin Elmer). Specific binding is determined as total radioactive binding minus non-specific binding in the […] of the ligand (80 nM PGD2). IC50s were determined using Graphpad prism analysis of drug titration curves.

CYP2C9 = CYP2C9 (Homo sapiens (Human), UniProt P11712); assay type: in vitro ADME; conditions: human hepatocytes, 10 μM
[4] = Plasma concentrations in mouse smoke model; assay type: in vivo
Experimental: BALB/c mice were exposed to the smoke of 7 unfiltered cigarettes per day via whole-body exposure on days 0, 1, and 2 for a total of 1.75 hours per day. […] The plasma concentrations for Compound 1 measured at trough were 85 and 588 nM at 10 mg/kg and 50 mg/kg, respectively.

[5] = Plasma concentrations in guinea pig DK-PGD2 leukocyte influx study; assay type: in vivo; conditions: Hartley; for concentration at 18.5 h: read-out: concentration of Compound 1 in plasma
Experimental: In the 2 hr study, intravenous DK-PGD2 (IV DK-PGD2) increased the number of peripheral blood leukocytes, mainly lymphocytes, which likely reflects recruitment from bone marrow. […] Plasma concentrations taken 2.5 hours following oral Compound 2 were 45 nM±36 and 120 nM±46 in the 10 mg/kg and 30 mg/kg dose groups, respectively.
In the 18 hr guinea pig study, a significant increase in peripheral blood leukocytes was also observed following IV DK-PGD2 challenge. […] The concentration of Compound 1 in plasma recovered 18.5 hours following oral dose was 4 nM±7, 21 nM±19 and 17 nM±10 in the 10 mg/kg, 30 mg/kg and 100 mg/kg dose groups, respectively.

CYP2C19 = CYP2C19 (Homo sapiens (Human), UniProt P33261); experiment: Extracellular cytochrome P450 inhibition (microsomes); conditions: IC50 (μM), 2C19, mephenytoin 4′-hydroxylation
[6] = water, listed as Amorphous Compound 2, sodium salt

Sequence of CYP2C19 (P33261 whole entry): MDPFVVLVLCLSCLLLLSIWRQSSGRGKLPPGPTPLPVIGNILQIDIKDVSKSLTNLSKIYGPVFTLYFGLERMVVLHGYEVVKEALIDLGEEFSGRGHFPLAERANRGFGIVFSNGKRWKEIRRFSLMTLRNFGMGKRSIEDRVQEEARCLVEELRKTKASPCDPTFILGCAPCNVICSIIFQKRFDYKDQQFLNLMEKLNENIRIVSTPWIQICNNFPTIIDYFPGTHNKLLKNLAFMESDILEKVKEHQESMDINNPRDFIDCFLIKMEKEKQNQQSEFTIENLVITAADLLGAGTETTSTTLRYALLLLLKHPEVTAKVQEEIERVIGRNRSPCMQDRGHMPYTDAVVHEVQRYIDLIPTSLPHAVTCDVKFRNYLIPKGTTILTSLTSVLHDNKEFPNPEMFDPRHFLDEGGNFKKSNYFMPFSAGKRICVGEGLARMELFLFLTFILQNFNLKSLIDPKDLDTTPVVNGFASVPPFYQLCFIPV
Sequence of recombinant human CRTH2 receptor (Q9Y5Y4 whole entry): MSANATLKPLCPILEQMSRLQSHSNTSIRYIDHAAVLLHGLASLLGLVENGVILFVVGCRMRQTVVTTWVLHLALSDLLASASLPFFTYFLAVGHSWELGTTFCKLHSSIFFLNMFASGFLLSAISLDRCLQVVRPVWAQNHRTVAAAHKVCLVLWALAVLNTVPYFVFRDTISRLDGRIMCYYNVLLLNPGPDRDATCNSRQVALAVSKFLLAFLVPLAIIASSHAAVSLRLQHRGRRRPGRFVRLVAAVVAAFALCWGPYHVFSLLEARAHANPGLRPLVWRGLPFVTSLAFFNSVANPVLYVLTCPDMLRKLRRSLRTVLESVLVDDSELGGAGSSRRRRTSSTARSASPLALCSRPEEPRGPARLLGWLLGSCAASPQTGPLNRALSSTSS

COc1ccc(CC(=O)O)cc1Oc1ccc(NC(=O)C(C)(C)C)cc1CSC(C)(C)C [Compound 1, 2-(3-(2-((tert-butylthio)methyl)-4-(2,2-dimethyl-propionylamino)phenoxy)-4-methoxyphenyl)acetic acid]
EC50 ([1]; 18 hr study, read-out: 18-hr EC50, inhibition of IV-DK-PGD2-induced leukocyte influx): 18 nM
Solubility mg/ml Free Base equivalent ([2]; test solvent pH 1.5, 25° C., 24 hours, listed as Compound 1 Pattern 1): 0.013 mg/mL
Solubility mg/ml Free Base equivalent ([2]; test solvent pH 4.0, 25° C., 24 hours, listed as Compound 1 Pattern 1): 0.0059 mg/mL
solubility at 24 h ([2]; test solvent pH 5.0, 25 °C, pH 5, aqueous buffer, thermodynamic from solid, test solvent pH 5.0, 25° C., 24 hours, read-out: Solubility mg/ml Free Base equivalent): 0.027 mg/mL
Solubility mg/ml Free Base equivalent ([2]; test solvent pH 6.5, 25° C., 24 hours, listed as Compound 1 Pattern 1): 0.39 mg/mL
Solubility mg/ml Free Base equivalent ([2]; test solvent pH 7.4, 25° C., 24 hours, listed as Compound 1 Pattern 1): 7.6 mg/mL
Thermodynamic solubility in water ([2]; water, listed as Pattern 1 of Compound 1): 6200 µg/mL
IC50 [3]: 2.8 nM
induction of CYP2C9 (CYP2C9): not a strong inducer
plasma concentration for Compound 1 at trough ([4]; 10 mg/kg PO daily): 85 nM
plasma concentration for Compound 1 at trough ([4]; 50 mg/kg PO daily): 588 nM
concentration at 18.5 h ([5]; 18.5 hours after oral 10 mg/kg): 4 nM
concentration at 18.5 h ([5]; 18.5 hours after oral 30 mg/kg): 21 nM
concentration at 18.5 h ([5]; 18.5 hours after oral 100 mg/kg): 17 nM

COc1ccc(CC(=O)O)cc1Oc1ccc(NC(=O)C(C)(C)C)cc1CSC(C)(C)C [Compound 2, 2-(3-(2-((tert-butylthio)methyl)-4-(2,2-dimethyl-propionylamino)phenoxy)-4-methoxyphenyl)acetic acid, sodium salt]
% inhibition of DK-PGD2-induced peripheral blood leukocyte increase ([1]; 2 hr study, 10 mg/kg oral): 19 (±23) %
% inhibition of DK-PGD2-induced peripheral blood leukocyte increase ([1]; 2 hr study, 30 mg/kg oral): 107 (±9) %
% inhibition of peripheral blood leukocyte numbers ([1]; 18 hr study, 10 mg/kg oral): 29 (±14) %
% inhibition of peripheral blood leukocyte numbers ([1]; 18 hr study, 30 mg/kg oral): 50 (±8) %
% inhibition of peripheral blood leukocyte numbers ([1]; 18 hr study, 100 mg/kg oral): 77 (±12) %
EC50 ([1]; 2 hr study, read-out: EC50 associated with ED50): 50 nM
ED50 ([1]; 2 hr study): 11 mg/kg
ED50 ([1]; 18 hr study): 63 mg/kg
IC50 (CYP2C19): > 50 µM
Solubility mg/ml Free Base equivalent ([2]; test solvent pH 1.5, 25° C., 24 hours, listed as Compound 2 Pattern 1, sodium salt): 0.0058 mg/mL
pH of Unfiltered Saturated solution ([2]; test solvent pH 1.5, listed as Compound 2 Pattern 1, sodium salt): 2.73
Solubility mg/ml Free Base equivalent ([2]; test solvent pH 4.0, 25° C., 24 hours, listed as Compound 2 Pattern 1, sodium salt): 0.0023 mg/mL
pH of Unfiltered Saturated solution ([2]; test solvent pH 4.0, listed as Compound 2 Pattern 1, sodium salt): 4.67
Solubility mg/ml Free Base equivalent ([2]; test solvent pH 5.0, 25° C., 24 hours, listed as Compound 2 Pattern 1, sodium salt): 0.04 mg/mL
pH of Unfiltered Saturated solution ([2]; test solvent pH 5.0, listed as Compound 2 Pattern 1, sodium salt): 5.88
Solubility mg/ml Free Base equivalent ([2]; test solvent pH 6.5, 25° C., 24 hours, listed as Compound 2 Pattern 1, sodium salt): 4.1 mg/mL
pH of Unfiltered Saturated solution ([2]; test solvent pH 6.5, listed as Compound 2 Pattern 1, sodium salt): 7.06
Solubility mg/ml Free Base equivalent ([2]; test solvent pH 7.4, 25° C., 24 hours, listed as Compound 2 Pattern 1, sodium salt): 18.0 mg/mL
pH of Unfiltered Saturated solution ([2]; test solvent pH 7.4, listed as Compound 2 Pattern 1, sodium salt): 7.97
Thermodynamic solubility in water [2, 6]: > 20000 µg/mL
pH of unfiltered solution [2, 6]: 8.18
concentration at 2.5 h ([5]; 2.5 hours after oral 10 mg/kg): 45 nM
concentration at 2.5 h ([5]; 2.5 hours after oral 30 mg/kg): 120 nM
